Tested on: interaction between p53 and POLII
Assay: in situ PLA (proximity ligation assay) of physical binding between p53 and RNA Polymerase II (POLII) in HaCaT cells
Format: cell-based, human
Settings: summary statement in the description
Method: After treating cells with the peptides of the present invention, the effects thereof on the physical binding between p53 and RNA Polymerase II (POLII) were evaluated through an in situ PLA (proximity ligation assay) method. HaCaT cells (human keratinocytes, CLS) were added at 4.5×10^4 cells per well, along with a DMEM containing 10% fetal bovine serum, to each well of a 24-well microplate and then cultured at 37° C. in a 5% CO2 incubator for 24 hours. The peptide solutions of Example 2 were added thereto so that the concentration of each peptide in the medium was 20 μM, followed by incubating for 1 hour under the same condition. […] The cells of each well were washed with PBS, fixed by treating with 2% formaldehyde for 15 minutes, and then treated with 0.1% TritonX-100 for 5 minutes to increase antibody permeability into the cells. Anti-p53 polyclonal antibody (Abcam, UK) and anti-POLII polyclonal antibody (Santa Cruz, Calif., USA) were added thereto. After the PLA probe was added thereto using the in situ PLA kit (Sigma-Aldrich), hybridization, ligation, amplification and mounting steps were carried out according to the manufacturer's protocol. Each physical interaction between p53 and POLII was quantified by measuring the luminescence signals (PLA signals) detected in each cell with a confocal laser microscope (Olympus fluoview FW1000; Olympus, Tokyo, Japan).

| Substance | activity in decreasing the interaction between p53 and MDM2 and thus increasing the interaction between p53 and POLII |
| --- | --- |
| Leu-Thr-Asp (LTD) [Pep 18] | particularly excellent activity |
| Leu-Ala-Asp (LAD) [Pep 4] | particularly excellent activity |
| Leu-Ser-Asp (LSD) [Pep 2] | particularly excellent activity |
| Leu-Arg-Asp (LRD) [Pep 6] | particularly excellent activity |
| Leu-Gly-Asp (LGD) [Pep 3] | particularly excellent activity |
| Leu-Lys-Asp (LKD) [Pep 7] | particularly excellent activity |
| Leu-Tyr-Asp (LYD) [Pep 9] | particularly excellent activity |

From US20230021365A1, “COMPOSITION COMPRISING P53-ACTIVATING PEPTIDE” (SUPADELIXIR INC., priority 2019, published 2023)
